Data from article PMC6170196 (Clinical pharmacology and therapeutics, 2012).
Like-named read-outs stand apart in the source and are kept apart here. Marks after values point to notes of the source that are not given here.

Type: in vivo, human
Details: flurbiprofen 100 mg oral, n=12
[1] = arithmetic mean, Fluconazole/ placebo
[2] = arithmetic mean, Pom extract/ placebo
[3] = arithmetic mean, Pom juice/ placebo
[4] = geometric mean, Fluconazole/ placebo
[5] = geometric mean, Pom extract/ placebo
[6] = geometric mean, Pom juice/ placebo

## CC(C(=O)O)c1ccc(-c2ccccc2)c(F)c1 (stereo not drawn) [FLURBIPROFEN, Flurbiprofen]
[1]
  Cmax ratio: 1.57 ^*
  Total AUC ratio: 2.04 ^*
[2]
  Cmax ratio: 1.08
  Total AUC ratio: 1.09
[3]
  Cmax ratio: 1.09
  Total AUC ratio: 1.08
[4]
  Cmax ratio: 1.47
  Total AUC ratio: 1.97
[5]
  Cmax ratio: 1.03
  Total AUC ratio: 1.06
[6]
  Cmax ratio: 1.03
  Total AUC ratio: 1.05
